Assay results as given in ChEMBL document CHEMBL5576074, “[1,2,4]Triazolo[1,5-a]pyrimidine derivatives: Structure-activity relationship study leading to highly selective ENPP1 inhibitors” (Bioorg Med Chem Lett, 2024).

target: T1, Ectonucleotide pyrophosphatase/phosphodiesterase family member 1 (Homo sapiens, UniProt P22413); assay: Inhibition of ENPP1 (unknown origin)
T1 sequence (P22413 whole entry): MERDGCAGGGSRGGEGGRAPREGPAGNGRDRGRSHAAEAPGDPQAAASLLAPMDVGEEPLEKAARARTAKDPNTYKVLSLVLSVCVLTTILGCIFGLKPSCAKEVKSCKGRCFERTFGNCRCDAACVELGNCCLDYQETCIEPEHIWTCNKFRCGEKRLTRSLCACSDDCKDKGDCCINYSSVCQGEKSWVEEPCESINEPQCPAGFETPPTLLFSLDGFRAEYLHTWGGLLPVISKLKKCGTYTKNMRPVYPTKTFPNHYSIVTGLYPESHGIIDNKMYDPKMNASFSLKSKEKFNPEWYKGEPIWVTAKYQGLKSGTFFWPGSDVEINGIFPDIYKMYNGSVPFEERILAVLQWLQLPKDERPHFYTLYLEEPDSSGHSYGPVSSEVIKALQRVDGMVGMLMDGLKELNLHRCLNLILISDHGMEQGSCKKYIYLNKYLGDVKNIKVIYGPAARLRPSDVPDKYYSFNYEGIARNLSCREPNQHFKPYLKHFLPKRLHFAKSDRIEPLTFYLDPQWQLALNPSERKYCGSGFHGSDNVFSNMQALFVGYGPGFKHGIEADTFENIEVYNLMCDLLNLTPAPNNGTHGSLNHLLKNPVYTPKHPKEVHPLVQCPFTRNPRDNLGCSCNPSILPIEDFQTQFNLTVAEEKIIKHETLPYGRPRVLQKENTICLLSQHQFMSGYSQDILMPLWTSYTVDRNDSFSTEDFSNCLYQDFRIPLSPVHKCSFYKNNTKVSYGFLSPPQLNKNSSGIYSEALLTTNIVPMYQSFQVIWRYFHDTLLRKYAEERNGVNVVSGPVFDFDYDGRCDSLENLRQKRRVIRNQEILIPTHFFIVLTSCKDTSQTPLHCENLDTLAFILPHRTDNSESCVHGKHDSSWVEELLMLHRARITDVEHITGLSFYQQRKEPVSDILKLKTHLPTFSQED

Structure (SMILES) | IC50 [µM]
Cc1cc(N(C)C)n2ncnc2n1 | 28
Cc1nc2ncnn2c(NCc2ccccc2)c1Cc1cccc(N)c1 | 9
Cc1nc2nc(SCC(=O)O)nn2c(N(C)C)c1Cc1ccccc1 | > 30
CCCNc1c(Cc2ccccc2)c(C)nc2ncnn12 | 32
CCCN(CCC)c1c(Cc2ccccc2)c(C)nc2ncnn12 | > 30
Cc1nc2ncnn2c(N(C)C)c1Cc1ccc([N+](=O)[O-])cc1 | 21
CCNc1c(Cc2ccccc2)c(C)nc2ncnn12 | 22
C#CCNc1c(Cc2ccccc2)c(C)nc2ncnn12 | > 30

These reach a lower IC50. Values come first.

IC50 [µM] | Structure (SMILES)
0.47 | Cc1nc2ncnn2c(N(C)C)c1Cc1ccc(N)cc1
3.6 | Cc1nc2ncnn2c(N(C)C)c1Cc1cccc([N+](=O)[O-])c1
4.9 | CC(=O)Nc1ccc(Cc2c(C)nc3ncnn3c2N(C)C)cc1
5.7 | Cc1nc2ncnn2c(N(C)C)c1Cc1ccc(Cl)cc1
3.1 | Cc1nc2ncnn2c(N(C)C)c1Cc1ccccc1[N+](=O)[O-]
7 | Cc1nc2ncnn2c(NCc2cccnc2)c1Cc1cccc(N)c1

target: T2, Ectonucleotide pyrophosphatase/phosphodiesterase family member 3 (Homo sapiens, UniProt O14638); assay: Inhibition of ENPP3 (unknown origin)
T2 sequence (O14638 whole entry): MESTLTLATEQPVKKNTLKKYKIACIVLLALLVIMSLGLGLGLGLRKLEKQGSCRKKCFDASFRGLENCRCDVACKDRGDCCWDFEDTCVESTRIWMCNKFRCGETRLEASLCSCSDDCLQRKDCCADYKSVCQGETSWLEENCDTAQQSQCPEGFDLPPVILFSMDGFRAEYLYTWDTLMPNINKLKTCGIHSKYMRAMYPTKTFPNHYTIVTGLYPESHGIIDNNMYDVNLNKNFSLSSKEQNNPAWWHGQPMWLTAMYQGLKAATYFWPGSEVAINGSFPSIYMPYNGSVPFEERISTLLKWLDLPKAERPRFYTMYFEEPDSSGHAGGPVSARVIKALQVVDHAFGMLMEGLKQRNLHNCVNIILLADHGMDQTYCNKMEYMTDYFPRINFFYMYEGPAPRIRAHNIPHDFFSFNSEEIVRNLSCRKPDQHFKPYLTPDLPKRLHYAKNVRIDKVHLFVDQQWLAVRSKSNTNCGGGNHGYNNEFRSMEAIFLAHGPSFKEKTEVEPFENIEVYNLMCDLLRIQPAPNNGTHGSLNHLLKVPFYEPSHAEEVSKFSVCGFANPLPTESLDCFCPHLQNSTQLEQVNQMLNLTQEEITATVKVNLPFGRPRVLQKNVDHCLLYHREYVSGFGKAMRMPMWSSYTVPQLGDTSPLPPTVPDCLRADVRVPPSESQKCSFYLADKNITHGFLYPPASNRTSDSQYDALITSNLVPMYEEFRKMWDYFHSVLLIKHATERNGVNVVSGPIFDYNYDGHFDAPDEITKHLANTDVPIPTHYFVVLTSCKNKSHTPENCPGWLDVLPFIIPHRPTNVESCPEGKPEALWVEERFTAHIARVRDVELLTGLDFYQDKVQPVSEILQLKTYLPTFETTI

Structure (SMILES) | IC50 [µM]
Cc1cc(N(C)C)n2ncnc2n1 | > 50
Cc1nc2ncnn2c(NCc2ccccc2)c1Cc1cccc(N)c1 | > 50
Cc1nc2nc(SCC(=O)O)nn2c(N(C)C)c1Cc1ccccc1 | > 50
CCCNc1c(Cc2ccccc2)c(C)nc2ncnn12 | > 50
CCCN(CCC)c1c(Cc2ccccc2)c(C)nc2ncnn12 | > 50
Cc1nc2ncnn2c(N(C)C)c1Cc1ccc([N+](=O)[O-])cc1 | > 50
CCNc1c(Cc2ccccc2)c(C)nc2ncnn12 | > 50
C#CCNc1c(Cc2ccccc2)c(C)nc2ncnn12 | > 50

Results, then the molecule that gave them:

IC50 [µM] | Structure (SMILES)
> 50 | Cc1nc2ncnn2c(N(C)C)c1Cc1ccc(N)cc1
> 50 | Cc1nc2ncnn2c(N(C)C)c1Cc1cccc([N+](=O)[O-])c1
> 50 | CC(=O)Nc1ccc(Cc2c(C)nc3ncnn3c2N(C)C)cc1
> 50 | Cc1nc2ncnn2c(N(C)C)c1Cc1ccc(Cl)cc1
> 50 | Cc1nc2ncnn2c(N(C)C)c1Cc1ccccc1[N+](=O)[O-]
> 50 | Cc1nc2ncnn2c(NCc2cccnc2)c1Cc1cccc(N)c1

target: T3, Autotaxin (Homo sapiens, UniProt Q13822); assay: Inhibition of ENPP2 (unknown origin)

Structure (SMILES) | IC50 [µM]
Cc1cc(N(C)C)n2ncnc2n1 | > 50
Cc1nc2ncnn2c(NCc2ccccc2)c1Cc1cccc(N)c1 | > 50
Cc1nc2nc(SCC(=O)O)nn2c(N(C)C)c1Cc1ccccc1 | > 50
CCCNc1c(Cc2ccccc2)c(C)nc2ncnn12 | > 50
CCCN(CCC)c1c(Cc2ccccc2)c(C)nc2ncnn12 | > 50
Cc1nc2ncnn2c(N(C)C)c1Cc1ccc([N+](=O)[O-])cc1 | > 50
CCNc1c(Cc2ccccc2)c(C)nc2ncnn12 | > 50
C#CCNc1c(Cc2ccccc2)c(C)nc2ncnn12 | > 50

Other lines, results leading:

IC50 [µM] | Structure (SMILES)
> 50 | Cc1nc2ncnn2c(N(C)C)c1Cc1ccc(N)cc1
> 50 | Cc1nc2ncnn2c(N(C)C)c1Cc1cccc([N+](=O)[O-])c1
> 50 | CC(=O)Nc1ccc(Cc2c(C)nc3ncnn3c2N(C)C)cc1
> 50 | Cc1nc2ncnn2c(N(C)C)c1Cc1ccc(Cl)cc1
> 50 | Cc1nc2ncnn2c(N(C)C)c1Cc1ccccc1[N+](=O)[O-]
> 50 | Cc1nc2ncnn2c(NCc2cccnc2)c1Cc1cccc(N)c1

target: T4, Glycerophosphocholine cholinephosphodiesterase ENPP6 (Homo sapiens, UniProt Q6UWR7); assay: Inhibition of ENPP6 (unknown origin)
T4 sequence (Q6UWR7 whole entry): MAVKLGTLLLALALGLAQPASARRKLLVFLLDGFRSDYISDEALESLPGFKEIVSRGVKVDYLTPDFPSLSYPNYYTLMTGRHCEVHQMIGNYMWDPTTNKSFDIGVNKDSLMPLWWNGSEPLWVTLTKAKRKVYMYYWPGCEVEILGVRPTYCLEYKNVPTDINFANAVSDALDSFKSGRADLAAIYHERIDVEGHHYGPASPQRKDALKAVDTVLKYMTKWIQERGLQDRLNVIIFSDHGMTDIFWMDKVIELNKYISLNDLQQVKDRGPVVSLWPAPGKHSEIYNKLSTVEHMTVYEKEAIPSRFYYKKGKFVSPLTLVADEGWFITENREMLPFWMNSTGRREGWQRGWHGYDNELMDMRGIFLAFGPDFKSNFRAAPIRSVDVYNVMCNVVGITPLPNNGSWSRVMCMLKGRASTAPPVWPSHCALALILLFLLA

Structure (SMILES) | IC50 [µM]
Cc1cc(N(C)C)n2ncnc2n1 | > 50
Cc1nc2ncnn2c(NCc2ccccc2)c1Cc1cccc(N)c1 | > 50
Cc1nc2nc(SCC(=O)O)nn2c(N(C)C)c1Cc1ccccc1 | > 50
CCCNc1c(Cc2ccccc2)c(C)nc2ncnn12 | > 50
CCCN(CCC)c1c(Cc2ccccc2)c(C)nc2ncnn12 | > 50
Cc1nc2ncnn2c(N(C)C)c1Cc1ccc([N+](=O)[O-])cc1 | > 50
CCNc1c(Cc2ccccc2)c(C)nc2ncnn12 | > 50
C#CCNc1c(Cc2ccccc2)c(C)nc2ncnn12 | > 50

More lines, now with the values ahead:

IC50 [µM] | Structure (SMILES)
> 50 | Cc1nc2ncnn2c(N(C)C)c1Cc1ccc(N)cc1
> 50 | Cc1nc2ncnn2c(N(C)C)c1Cc1cccc([N+](=O)[O-])c1
> 50 | CC(=O)Nc1ccc(Cc2c(C)nc3ncnn3c2N(C)C)cc1
> 50 | Cc1nc2ncnn2c(N(C)C)c1Cc1ccc(Cl)cc1
> 50 | Cc1nc2ncnn2c(N(C)C)c1Cc1ccccc1[N+](=O)[O-]
> 50 | Cc1nc2ncnn2c(NCc2cccnc2)c1Cc1cccc(N)c1

target: T5, Ectonucleotide pyrophosphatase/phosphodiesterase family member 3 (Homo sapiens) (UniProt O14638); assay: Inhibition of ENPP3 (unknown origin) at 50 uM relative to control
T5 sequence (whole entry): T2 sequence (O14638 whole entry)

Structure (SMILES) | inhibition [%]
Cc1cc(N(C)C)n2ncnc2n1 | 10
Cc1nc2ncnn2c(NCc2ccccc2)c1Cc1cccc(N)c1 | 11
Cc1nc2nc(SCC(=O)O)nn2c(N(C)C)c1Cc1ccccc1 | < 1
CCCNc1c(Cc2ccccc2)c(C)nc2ncnn12 | 5.2
CCCN(CCC)c1c(Cc2ccccc2)c(C)nc2ncnn12 | < 1
Cc1nc2ncnn2c(N(C)C)c1Cc1ccc([N+](=O)[O-])cc1 | 2.7
CCNc1c(Cc2ccccc2)c(C)nc2ncnn12 | 7
C#CCNc1c(Cc2ccccc2)c(C)nc2ncnn12 | 24

Further lines, results first:

inhibition [%] | Structure (SMILES)
12 | Cc1nc2ncnn2c(N(C)C)c1Cc1ccc(N)cc1
4.3 | Cc1nc2ncnn2c(N(C)C)c1Cc1cccc([N+](=O)[O-])c1
8.5 | CC(=O)Nc1ccc(Cc2c(C)nc3ncnn3c2N(C)C)cc1
1.5 | Cc1nc2ncnn2c(N(C)C)c1Cc1ccc(Cl)cc1
6.8 | Cc1nc2ncnn2c(N(C)C)c1Cc1ccccc1[N+](=O)[O-]
12 | Cc1nc2ncnn2c(NCc2cccnc2)c1Cc1cccc(N)c1

target: T3, Autotaxin; assay: Inhibition of ENPP2 (unknown origin) at 50 uM relative to control

Structure (SMILES) | inhibition [%]
Cc1cc(N(C)C)n2ncnc2n1 | < 1
Cc1nc2ncnn2c(NCc2ccccc2)c1Cc1cccc(N)c1 | < 1
Cc1nc2nc(SCC(=O)O)nn2c(N(C)C)c1Cc1ccccc1 | < 1
CCCNc1c(Cc2ccccc2)c(C)nc2ncnn12 | 12
CCCN(CCC)c1c(Cc2ccccc2)c(C)nc2ncnn12 | 5.5
Cc1nc2ncnn2c(N(C)C)c1Cc1ccc([N+](=O)[O-])cc1 | < 1
CCNc1c(Cc2ccccc2)c(C)nc2ncnn12 | 7.8
C#CCNc1c(Cc2ccccc2)c(C)nc2ncnn12 | 1.4

Results, then the molecule that gave them:

inhibition [%] | Structure (SMILES)
7.7 | Cc1nc2ncnn2c(N(C)C)c1Cc1ccc(N)cc1
11 | Cc1nc2ncnn2c(N(C)C)c1Cc1cccc([N+](=O)[O-])c1
5.1 | CC(=O)Nc1ccc(Cc2c(C)nc3ncnn3c2N(C)C)cc1
4.9 | Cc1nc2ncnn2c(N(C)C)c1Cc1ccc(Cl)cc1
4.7 | Cc1nc2ncnn2c(N(C)C)c1Cc1ccccc1[N+](=O)[O-]
< 1 | Cc1nc2ncnn2c(NCc2cccnc2)c1Cc1cccc(N)c1

target: T6, Glycerophosphocholine cholinephosphodiesterase ENPP6 (Homo sapiens) (UniProt Q6UWR7); assay: Inhibition of ENPP6 (unknown origin) at 50 uM relative to control
T6 sequence (whole entry): T4 sequence (Q6UWR7 whole entry)

Structure (SMILES) | inhibition [%]
Cc1cc(N(C)C)n2ncnc2n1 | < 1
Cc1nc2ncnn2c(NCc2ccccc2)c1Cc1cccc(N)c1 | < 1
Cc1nc2nc(SCC(=O)O)nn2c(N(C)C)c1Cc1ccccc1 | < 1
CCCNc1c(Cc2ccccc2)c(C)nc2ncnn12 | 3.8
CCCN(CCC)c1c(Cc2ccccc2)c(C)nc2ncnn12 | < 1
Cc1nc2ncnn2c(N(C)C)c1Cc1ccc([N+](=O)[O-])cc1 | < 1
CCNc1c(Cc2ccccc2)c(C)nc2ncnn12 | < 1
C#CCNc1c(Cc2ccccc2)c(C)nc2ncnn12 | < 1

Next, values leading:

inhibition [%] | Structure (SMILES)
< 1 | Cc1nc2ncnn2c(N(C)C)c1Cc1ccc(N)cc1
< 1 | Cc1nc2ncnn2c(N(C)C)c1Cc1cccc([N+](=O)[O-])c1
2.3 | CC(=O)Nc1ccc(Cc2c(C)nc3ncnn3c2N(C)C)cc1
2 | Cc1nc2ncnn2c(N(C)C)c1Cc1ccc(Cl)cc1
< 1 | Cc1nc2ncnn2c(N(C)C)c1Cc1ccccc1[N+](=O)[O-]
< 1 | Cc1nc2ncnn2c(NCc2cccnc2)c1Cc1cccc(N)c1
